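Protocol summary: plate cells (96-well), add compound at 5 concentrations, incubate 48 h, interpolate endpoints linearly. Here, GI50 denotes the concentration required for 50% inhibition of growth.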 The source made the active and inactive calls. No stated cut-off is given here; in the data, active = GI50 up to about 1.1 µM and inactive = higher.
How the values were obtained:
Assay in all cases: DTP human tumour cell line panel, 48 h
OVCAR-5 = tested on: OVCAR-5
SK-MEL-28 = tested on: SK-MEL-28
XF498 = tested on: XF498
OVCAR-4 = tested on: OVCAR-4
A498 = tested on: A498
SK-OV-3 = tested on: SK-OV-3
KM12 = tested on: KM12
HOP-18 = tested on: HOP-18
KM-20L2 = tested on: KM-20L2
NCI-H23 = tested on: NCI-H23
SNB-19 = tested on: SNB-19
CCRF-CEM = tested on: CCRF-CEM
U-251 = tested on: U-251
COLO 205 = tested on: COLO 205
DMS-114 = tested on: DMS-114
HOP-62 = tested on: HOP-62
EKVX = tested on: EKVX
TK-10 = tested on: TK-10
HCT-15 = tested on: HCT-15
K562 = tested on: K562
UACC-62 = tested on: UACC-62
Malme-3M = tested on: Malme-3M
UO-31 = tested on: UO-31
NCI-H460 = tested on: NCI-H460
SF-295 = tested on: SF-295
NCI-H522 = tested on: NCI-H522
SNB-75 = tested on: SNB-75
CAKI-1 = tested on: CAKI-1
IGROV-1 = tested on: IGROV-1
UACC-257 = tested on: UACC-257
786-0 = tested on: 786-0
SF-539 = tested on: SF-539
SK-MEL-5 = tested on: SK-MEL-5
RPMI-8226 = tested on: RPMI-8226
LXFL 529 = tested on: LXFL 529
OVCAR-8 = tested on: OVCAR-8
OVCAR-3 = tested on: OVCAR-3
ACHN = tested on: ACHN
MOLT-4 = tested on: MOLT-4
M19-MEL = tested on: M19-MEL
SW-620 = tested on: SW-620
SNB-78 = tested on: SNB-78
A549 = tested on: A549
HCC 2998 = tested on: HCC 2998
HCT-116 = tested on: HCT-116
HT-29 = tested on: HT-29
SN12C = tested on: SN12C
SF-268 = tested on: SF-268
SK-MEL-2 = tested on: SK-MEL-2
DLD-1 = tested on: DLD-1
M14 = tested on: M14
NCI-H226 = tested on: NCI-H226

CN(C)c1ccc(/C=C/C(=O)C(C)(C)C)cc1Br
GI50 (OVCAR-5): 49 µM (inactive)
GI50 (SK-MEL-28): 17.8 µM (inactive)
GI50 (XF498): 15 µM (inactive)
GI50 (OVCAR-4): 19.9 µM (inactive)
GI50 (A498): 41.1 µM (inactive)
GI50 (SK-OV-3): 52.1 µM (inactive)
GI50 (KM12): 24.1 µM (inactive)
GI50 (HOP-18): > 100 µM (inactive)
GI50 (KM-20L2): 25.6 µM (inactive)
GI50 (NCI-H23): 26.1 µM (inactive)
GI50 (SNB-19): 31.6 µM (inactive)
GI50 (CCRF-CEM): 24.6 µM (inactive)
GI50 (U-251): 27.4 µM (inactive)
GI50 (COLO 205): 25.7 µM (inactive)
GI50 (DMS-114): 18.5 µM (inactive)
GI50 (HOP-62): 63.5 µM (inactive)
GI50 (EKVX): 44.4 µM (inactive)
GI50 (TK-10): 30.8 µM (inactive)
GI50 (HCT-15): 19.9 µM
GI50 (K562): 25.2 µM (inactive)
GI50 (UACC-62): 16.7 µM (inactive)
GI50 (Malme-3M): 28.4 µM (inactive)
GI50 (UO-31): 32.1 µM (inactive)
GI50 (NCI-H460): 35.8 µM (inactive)
GI50 (SF-295): 40.3 µM (inactive)
GI50 (NCI-H522): 16.1 µM (inactive)
GI50 (SNB-75): 20.1 µM (inactive)
GI50 (CAKI-1): 23.9 µM (inactive)
GI50 (IGROV-1): 35.4 µM (inactive)
GI50 (UACC-257): 24 µM (inactive)
GI50 (786-0): 24 µM (inactive)
GI50 (SF-539): 25.1 µM (inactive)
GI50 (SK-MEL-5): 18.7 µM (inactive)
GI50 (RPMI-8226): 19.5 µM (inactive)
GI50 (LXFL 529): 30 µM (inactive)
GI50 (OVCAR-8): 21.8 µM (inactive)
GI50 (OVCAR-3): 33.3 µM (inactive)
GI50 (ACHN): 31.5 µM (inactive)
GI50 (MOLT-4): 21.2 µM (inactive)
GI50 (M19-MEL): 19.8 µM (inactive)
GI50 (SW-620): 27.7 µM (inactive)
GI50 (SNB-78): 44.2 µM (inactive)
GI50 (A549): 39.9 µM (inactive)
GI50 (HCC 2998): 27.4 µM (inactive)
GI50 (HCT-116): 17.7 µM (inactive)
GI50 (HT-29): 31.8 µM (inactive)
GI50 (SN12C): 24.9 µM (inactive)
GI50 (SF-268): 20.3 µM (inactive)
GI50 (SK-MEL-2): 18.9 µM (inactive)
GI50 (DLD-1): 18.7 µM (inactive)
GI50 (M14): 18.9 µM (inactive)

COc1ccc2c([nH]c3cc(O)c(C)cc32)c1CC=C(C)C
GI50 (OVCAR-5): > 25 µM (inactive)
GI50 (SK-MEL-28): > 25 µM (inactive)
GI50 (XF498): > 25 µM (inactive)
GI50 (OVCAR-4): 22.5 µM (inactive)
GI50 (SK-OV-3): > 25 µM (inactive)
GI50 (NCI-H226): > 25 µM (inactive)
GI50 (SNB-19): > 25 µM (inactive)
GI50 (COLO 205): > 25 µM (inactive)
GI50 (DMS-114): 20.9 µM (inactive)
GI50 (IGROV-1): 23.1 µM (inactive)
GI50 (RPMI-8226): 8.38 µM (inactive)
GI50 (OVCAR-8): 4.42 µM (inactive)
GI50 (OVCAR-3): 5.32 µM (inactive)
GI50 (SNB-78): 11.5 µM (inactive)
GI50 (HT-29): 7.24 µM (inactive)
GI50 (SN12C): 5.04 µM (inactive)
GI50 (SK-MEL-2): > 25 µM (inactive)
